US10206937B2, “Boronic acid derivatives and therapeutic uses thereof” (Qpex Biopharma, Inc., priority 2014, dated 2019)

System: strains of Enterobacteriaceae producing various carbapenemases (class A, D and B; 169 strains)
Assay: Meropenem or tebipenem potentiation by Compounds 97 or 62 (MIC)
Format: cell-based
How it was run: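 Meropenem and tebipenem MICs measured alone or with Compound 97 or 62 held at a fixed 8 μg/ml in the growth medium. Panel of 169 clinical Enterobacteriaceae isolates expressing class A, D and B carbapenemases, alone or with other beta-lactamases.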

SMILES: C[C@@H](O)[C@H]1C(=O)N2C(C(=O)O)=C(SC3CN(C4=NCCS4)C3)[C@H](C)[C@H]12 [T]
- Tebipenem MIC alone (T) (CF1022 Citrobacter freundii SHV-12(2be), TEM-OSBL(2b), IMP-8): Y (MIC of 1 μg/mL to 10 μg/mL)
- Tebipenem MIC alone (T) (CF1023 Citrobacter freundii SHV-12(2be), TEM-OSBL(2b), CTX-M-3, CMY-34, NDM-1): Z (MIC of greater than 10 μg/mL)
- Tebipenem MIC alone (T) (EC1061 Escherichia coli NDM-1, CMY-6): Z (MIC of greater than 10 μg/mL)
- Tebipenem MIC alone (T) (EC1069 Escherichia coli CTX-M-27, NDM-1): Z (MIC of greater than 10 μg/mL)
- Tebipenem MIC alone (T) (EC1070 Escherichia coli TEM-OSBL(2b), CMY-42, NDM-5): Z (MIC of greater than 10 μg/mL)
- Tebipenem MIC alone (T) (EC1072 Escherichia coli CTX-M-3, NDM-1): Z (MIC of greater than 10 μg/mL)
- Tebipenem MIC alone (T) (ECL1045 Enterobacter cloacae VIM-1): Y (MIC of 1 μg/mL to 10 μg/mL)
- Tebipenem MIC alone (T) (ECL1055 Enterobacter cloacae KPC-3, TEM): Z (MIC of greater than 10 μg/mL)
- Tebipenem MIC alone (T) (ECL1057 Enterobacter cloacae NDM-1, TEM-1, CTX-M-15): Z (MIC of greater than 10 μg/mL)
- Tebipenem MIC alone (T) (ECL1084 Enterobacter cloacae CTX-M-15, ACT-16, NDM-1): Z (MIC of greater than 10 μg/mL)
- Tebipenem MIC alone (T) (ECL1085 Enterobacter cloacae SHV-31(2be), TEM-1(2b), CTX-M-15, NDM-1): Z (MIC of greater than 10 μg/mL)
- Tebipenem MIC alone (T) (ECL1087 Enterobacter cloacae VIM-1): Y (MIC of 1 μg/mL to 10 μg/mL)
- Tebipenem MIC alone (T) (ECL1090 Enterobacter cloacae TEM-1(2b), CTX-M-22, ACT-type, IMP-8): Y (MIC of 1 μg/mL to 10 μg/mL)
- Tebipenem MIC alone (T) (ECL1092 Enterobacter cloacae TEM-OSBL(2b), ACT-32, VIM-1): Y (MIC of 1 μg/mL to 10 μg/mL)
- Tebipenem MIC alone (T) (ECL1093 Enterobacter cloacae TEM-OSBL(2b), ACT-32, VIM-1): Y (MIC of 1 μg/mL to 10 μg/mL)
- Tebipenem MIC alone (T) (ECL1094 Enterobacter cloacae VIM-1): Z (MIC of greater than 10 μg/mL)
- Tebipenem MIC alone (T) (ECL1095 Enterobacter cloacae SHV-12(2be), TEM-OSBL(2b), CMY-4, ACT-16, VIM-4, OXA-48(c)): Z (MIC of greater than 10 μg/mL)
- Tebipenem MIC alone (T) (ECL1096 Enterobacter cloacae CMY-4, VIM-4, OXA-48(c)): Z (MIC of greater than 10 μg/mL)
- Tebipenem MIC alone (T) (ECL1097 Enterobacter cloacae SHV-31(2be), TEM-OSBL(2b), CTX-M-15, ACT-31, NDM-1): Z (MIC of greater than 10 μg/mL)
- Tebipenem MIC alone (T) (ECL1098 Enterobacter cloacae TEM-OSBL(2b), DHA-1, ACT-16, NDM-1): Z (MIC of greater than 10 μg/mL)
- Tebipenem MIC alone (T) (KP1054 Klebsiella pneumoniae VIM-1, SHV-11): Z (MIC of greater than 10 μg/mL)
- Tebipenem MIC alone (T) (KP1059 Klebsiella pneumoniae VIM-1, SHV-11): Z (MIC of greater than 10 μg/mL)
- Tebipenem MIC alone (T) (KP1061 Klebsiella pneumoniae KPC-3, TEM-1, SHV-11): Z (MIC of greater than 10 μg/mL)
- Tebipenem MIC alone (T) (KP1064 Klebsiella pneumoniae KPC-2, TEM-1, SHV-11): Z (MIC of greater than 10 μg/mL)
- Tebipenem MIC alone (T) (KP1065 Klebsiella pneumoniae VIM-1, SHV-11): Y (MIC of 1 μg/mL to 10 μg/mL)
- Tebipenem MIC alone (T) (KP1070 Klebsiella pneumoniae KPC-2, SHV-11, TEM-1): Z (MIC of greater than 10 μg/mL)
- Tebipenem MIC alone (T) (KP1074 Klebsiella pneumoniae KPC-3, SHV-11, TEM): Z (MIC of greater than 10 μg/mL)
- Tebipenem MIC alone (T) (KP1081 Klebsiella pneumoniae NDM-1, TEM-1, SHV-11, CMY-6, CTX-M-15): Z (MIC of greater than 10 μg/mL)
- Tebipenem MIC alone (T) (KP1158 Klebsiella pneumoniae KPC-2, VIM-1): Z (MIC of greater than 10 μg/mL)
- Tebipenem MIC alone (T) (KP1159 Klebsiella pneumoniae SHV-1(2b), CTX-M-15, IMP-4): Y (MIC of 1 μg/mL to 10 μg/mL)
- Tebipenem MIC alone (T) (KP1160 Klebsiella pneumoniae SHV-28(2be), CTX-M-15, IMP-26): Y (MIC of 1 μg/mL to 10 μg/mL)
- Tebipenem MIC alone (T) (KP1161 Klebsiella pneumoniae NDM-1): Z (MIC of greater than 10 μg/mL)
- Tebipenem MIC alone (T) (KP1162 Klebsiella pneumoniae SHV-1(2b), CTX-M-15, IMP-4): Z (MIC of greater than 10 μg/mL)
- Tebipenem MIC alone (T) (KP1163 Klebsiella pneumoniae SHV-11(2b), MOX-1, KPC-2, VIM-1): Z (MIC of greater than 10 μg/mL)
- Tebipenem MIC alone (T) (KP1164 Klebsiella pneumoniae SHV-12(2be), VIM-1): Z (MIC of greater than 10 μg/mL)
- Tebipenem MIC alone (T) (KP1165 Klebsiella pneumoniae SHV-11(2b), CTX-M-15, VIM-27): Z (MIC of greater than 10 μg/mL)
- Tebipenem MIC alone (T) (KP1166 Klebsiella pneumoniae SHV-5(2be), VIM-26): Z (MIC of greater than 10 μg/mL)
- Tebipenem MIC alone (T) (KP1168 Klebsiella pneumoniae SHV-11(2b), CTX-M-15, VIM-27): Z (MIC of greater than 10 μg/mL)
- Tebipenem MIC alone (T) (KP1169 Klebsiella pneumoniae SHV-11(2b), VIM-1): Y (MIC of 1 μg/mL to 10 μg/mL)
- Tebipenem MIC alone (T) (KP1170 Klebsiella pneumoniae SHV-11(2b), CTX-M-15, NDM-1): Z (MIC of greater than 10 μg/mL)
- Tebipenem MIC alone (T) (KP1172 Klebsiella pneumoniae SHV-31(2be), DHA-1, VIM-1): Y (MIC of 1 μg/mL to 10 μg/mL)
- Tebipenem MIC alone (T) (KP1173 Klebsiella pneumoniae TEM-33(2br), CTX-M-15, IMP-1): Y (MIC of 1 μg/mL to 10 μg/mL)
- Tebipenem MIC alone (T) (KP1174 Klebsiella pneumoniae CTX-M-14, IMP-1): Y (MIC of 1 μg/mL to 10 μg/mL)
- Tebipenem MIC alone (T) (KP1175 Klebsiella pneumoniae SHV-OSBL(2b), VIM-1): Z (MIC of greater than 10 μg/mL)
- Tebipenem MIC alone (T) (KP1176 Klebsiella pneumoniae SHV-12(2be), TEM-OSBL(2b), CMY-13, KPC-2, VIM-1): Z (MIC of greater than 10 μg/mL)
- Tebipenem MIC alone (T) (KP1177 Klebsiella pneumoniae SHV-OSBL(2b), TEM-OSBL(2b), CTX-M-15, NDM-1): Z (MIC of greater than 10 μg/mL)
- Tebipenem MIC alone (T) (KP1178 Klebsiella pneumoniae SHV-OSBL(2b), TEM-OSBL(2b), CTX-M-15, NDM-1): Z (MIC of greater than 10 μg/mL)
- Tebipenem MIC alone (T) (KP1179 Klebsiella pneumoniae SHV-12(2be), TEM-OSBL(2b), CTX-M-15, NDM-7): Z (MIC of greater than 10 μg/mL)
- Tebipenem MIC alone (T) (KP1180 Klebsiella pneumoniae SHV-OSBL(2b), TEM-OSBL(2b), CTX-M-15, DHA-1, IMP-26): Y (MIC of 1 μg/mL to 10 μg/mL)
- Tebipenem MIC alone (T) (KP1181 Klebsiella pneumoniae SHV-OSBL(2b), CTX-M-15, IMP-26): Y (MIC of 1 μg/mL to 10 μg/mL)
